# Target: T1, Tyk2 (Homo sapiens, UniProt P29597)
# T1 construct: purchased Invitrogen
# Assay: Tyk2 enzyme inhibition test (LANCE method)
# Type: biochemical
# Conditions: 1 uM test compound, ULight-JAK1 peptide substrate, well without enzyme = 100% inhibition, read-out: Tyk2 enzyme inhibitory activity (%, 1 uM)
# Experimental: Tyk2 enzyme inhibitory activity of test compounds was measured by LANCE method (PerkinElmer). First, a test compound diluted with assay buffer (50 mM HEPES (pH=7.5), 10 mM MgCl2, 1 mM EGTA, 2 mM DTT, 0.01% Tween20, 0.01% BSA) was added to 384-well plate at 2 μL each. Then, a Tyk2 (Invitrogen) solution and a fluorescence-labeled peptide substrate (ULight-JAK1, PerkinElmer) solution diluted with assay buffer at 375 ng/mL and 300 nM, respectively were added at 2 μL each. Then, enzyme reaction was started by adding 2 μL each of ATP solution prepared with assay buffer at 30 μM. After the reaction at room temperature for 1 hr, Detection Buffer (PerkinElmer) prepared to be 20 mM EDTA, 4 nM europium-labeled anti-phosphotyrosine antibody (PerkinElmer) was added at 6 μL each. After standing at room temperature for 1 hr, fluorescence intensity (excitation wavelength 340 nm, fluorescence wavelength 665 nm, delay time 100 microsecond) was measured by a plate reader, Envision (PerkinElmer). The inhibitory activity of each compound was calculated as relative value where fluorescence intensity of a well without enzyme is considered as 100% inhibition.
# T1 sequence (P29597 whole entry): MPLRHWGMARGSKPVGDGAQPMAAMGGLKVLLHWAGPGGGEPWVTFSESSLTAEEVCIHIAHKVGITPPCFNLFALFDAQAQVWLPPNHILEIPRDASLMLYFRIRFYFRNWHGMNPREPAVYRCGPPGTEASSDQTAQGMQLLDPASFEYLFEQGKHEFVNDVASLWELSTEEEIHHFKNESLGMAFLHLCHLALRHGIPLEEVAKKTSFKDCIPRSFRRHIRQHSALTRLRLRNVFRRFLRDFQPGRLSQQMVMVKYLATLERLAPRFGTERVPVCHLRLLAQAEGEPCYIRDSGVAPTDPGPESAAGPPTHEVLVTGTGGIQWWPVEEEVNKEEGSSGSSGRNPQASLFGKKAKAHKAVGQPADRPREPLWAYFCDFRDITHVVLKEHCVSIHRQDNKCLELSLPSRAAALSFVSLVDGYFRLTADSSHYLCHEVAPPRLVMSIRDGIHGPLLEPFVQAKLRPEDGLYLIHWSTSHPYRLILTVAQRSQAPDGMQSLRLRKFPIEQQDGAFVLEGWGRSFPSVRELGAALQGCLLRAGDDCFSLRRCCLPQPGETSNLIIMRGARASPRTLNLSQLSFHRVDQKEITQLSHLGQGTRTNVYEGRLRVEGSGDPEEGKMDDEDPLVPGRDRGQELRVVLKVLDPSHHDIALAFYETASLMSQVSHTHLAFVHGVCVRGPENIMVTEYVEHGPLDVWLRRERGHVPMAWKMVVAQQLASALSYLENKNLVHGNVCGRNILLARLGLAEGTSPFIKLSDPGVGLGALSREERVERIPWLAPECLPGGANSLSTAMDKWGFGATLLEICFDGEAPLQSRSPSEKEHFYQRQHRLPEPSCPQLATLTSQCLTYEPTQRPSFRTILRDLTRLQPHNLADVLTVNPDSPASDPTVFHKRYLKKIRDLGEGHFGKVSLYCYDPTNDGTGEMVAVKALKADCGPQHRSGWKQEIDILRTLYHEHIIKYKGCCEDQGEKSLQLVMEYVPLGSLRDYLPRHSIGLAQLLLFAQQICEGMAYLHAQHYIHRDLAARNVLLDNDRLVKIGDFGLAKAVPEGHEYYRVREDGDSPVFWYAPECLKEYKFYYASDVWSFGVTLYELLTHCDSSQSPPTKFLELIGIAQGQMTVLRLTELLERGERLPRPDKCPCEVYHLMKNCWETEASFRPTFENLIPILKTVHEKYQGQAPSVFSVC
row,SMILES,inhibition at 1 µM [%]
1,"Cc1ccccc1-n1cc(Br)c2[nH]nc(N)c2c1=O [Example 1, 3-amino-7-bromo-5-(2-methylphenyl)-1,5-dihydro-4H-pyrazolo[4,3-c]pyridin-4-one]",40
2,"CC(C)C(C)n1cc(-c2ccn(C)n2)c2[nH]nc(N)c2c1=O (stereo not drawn) [Example 13, 3-amino-5-(3-methylbutan-2-yl)-7-(1-methyl-1H-pyrazol-3-yl)-1,5-dihydro-4H-pyrazolo[4,3-c]pyridin-4-one]",98
3,"CC1CCCCC1n1cc(-c2ccn(C)n2)c2[nH]nc(N)c2c1=O (stereo not drawn) [Example 14, 3-amino-5-(2-methylcyclohexyl)-7-(1-methyl-1H-pyrazol-3-yl)-1,5-dihydro-4H-pyrazolo[4,3-c]pyridin-4-one]",98
4,"Cn1ccc(-c2cn(-c3c(F)cccc3F)c(=O)c3c(N)n[nH]c23)n1 [Example 15, 3-amino-5-(2,6-difluorophenyl)-7-(1-methyl-1H-pyrazol-3-yl)-1,5-dihydro-4H-pyrazolo[4,3-c]pyridin-4-one]",100
5,"N#Cc1cc2[nH]nc(N)c2c(=O)n1-c1ccccc1Cl [Example 16, 3-amino-5-(2-chlorophenyl)-4-oxo-4,5-dihydro-1H-pyrazolo[4,3-c]pyridine-6-carbonitrile]",82
6,"Nc1n[nH]c2c(-c3csc(CN4CCCC4)c3)cn(-c3ccccc3Cl)c(=O)c12 [Example 38, 3-amino-5-(2-chlorophenyl)-7-(5-(pyrrolidin-1-ylmethyl)-3-thienyl)-1,5-dihydro-4H-pyrazolo[4,3-c]pyridin-4-one]",95

# Next, values leading:
row,inhibition at 1 µM [%],SMILES
1,98,"Nc1n[nH]c2c(-c3ccccn3)cn(-c3ccccc3Cl)c(=O)c12 [Example 24, 3-amino-5-(2-chlorophenyl)-7-(pyridin-2-yl)-1,5-dihydro-4H-pyrazolo[4,3-c]pyridin-4-one]"
2,100,"N#Cc1ccnc(-c2cn(-c3ccccc3Cl)c(=O)c3c(N)n[nH]c23)c1 [Example 28, 2-(3-amino-5-(2-chlorophenyl)-4-oxo-4,5-dihydro-1H-pyrazolo[4,3-c]pyridin-7-yl)isonicotinonitrile]"
3,92,"Cn1ccc(-c2cn(-c3ccccc3C(F)(F)F)c(=O)c3c(N)n[nH]c23)n1 [Example 43, 3-amino-7-(1-methyl-1H-pyrazol-3-yl)-5-(2-(trifluoromethyl)phenyl)-1,5-dihydro-4H-pyrazolo[4,3-c] pyridin-4-one]"

# Source: patent publication US9085578B2, “Heterocyclic compound” (Takeda Pharmaceutical Company Limited, priority 2012, dated 2015)
